Data published in US10973835B2, “Boron-containing small molecules for inhibiting activity of a receptor-like protein tyrosine phosphatase” (The Penn State Research Foundation, priority 2017, dated 2021).
Entries after “also recorded” stand apart in the source; their conditions may differ. Read-outs that look alike come from different tables or passages of the source. One block for each compound: values may come before it.

Columns and labels:
[1] = target: LAR-oxidized (Leukocyte common antigen-related, LAR) (Homo sapiens, UniProt P10586); assay: RPTP assay, standard assay conditions: phosphatase activity of oxidized LAR (DiFMUP substrate, TCEP reduction); type: biochemical
Method: (§1) Leukocyte common antigen-related (LAR) and PTPσ were used as illustrative type IIa RPTPs. Illustratively, purified LAR (100 nM) was mixed with H2O2 (2 mM) in phosphatase assay buffer (50 mM HEPES, pH 7.0, 100 mM NaCl, 0.1% BSA) at room temperature for 10 minutes. Excess H2O2 was removed with a Zeba™ Desalting Column (Thermo Scientific) equilibrated in the assay buffer without any reducing agent. Phosphatase activity was measured for each protein sample using 6,8-difluoro-4-methylumbiliferyl phosphate (DiFMUP) as the substrate, with or without 5 mM Tris(2-carboxyethyl)phosphine hydrochloride (TCEP). Activity of the oxidized sample was compared to that of the untreated (unoxidized) sample in the presence of 5 mM TCEP.
(§2) LAR-OX (10 nM) was incubated with compounds (0.1 mM) for varying lengths of time and the phosphatase activity was monitored using DiFMUP as substrate following reduction of the PTP with TCEP (5 mM). TCEP was not removed before adding DiFMUP. DiFMUP was added right after TCEP and the activity was followed continuously for 60 minutes. […] The above protocol was used to test the activity of other phosphatases (PTP1B, PTPσ, SHP2, PTPα, PTEN, and JSP1).

PTPσ-oxidized = PTPσ-oxidized (Homo sapiens, UniProt Q13332); assay: RPTP assay, standard assay conditions: phosphatase activity of oxidized PTPσ; type: biochemical
Method: as §1, §2

[2] = test system: MuSK phosphorylation (LAR dephosphorylating MuSK) in C2C12 myotubes; assay: MuSK tyrosine phosphorylation in agrin-stimulated C2C12 myotubes (anti-pTyr immunoprecipitation, anti-MuSK blot); type: cell-based, mouse
Method: C2C12 cells serum starved (8 hours) and then treated with CL-37 for 1 hour. Following which, cells were stimulated with Agrin (10 nM) for varying lengths of time (0-60 minutes). The cells were lysed and lysates were used to immunoprecipitate tyrosine phosphorylated proteins using 4G10® (05-321 from EMD Milliooire Corp. and PY20 (such as ab10321 fromabcam Plc) antibodies for 90 minutes at 4 C. The immunocomplexes were washed and resolved on SDS gels and immunoblotted using anti-MUSK antibody. For the immunoprecipitation experiments, 1 mg of total cell lysate was incubated with anti-pTyr antibodies at 4° C. for 90 minutes. The interacting protein complexes were immunoprecipitated after incubating the lysate-antibody mixture with protein A/G Sepharose® at 4° C. for 30 minutes. After immunoprecipitation, Sepharose® beads were washed three times at 4° C. with wash buffer (PBS, pH 7.4, 0.05% BSA, 0.05% Tween®-20 and protease inhibitors). Complexes were separated by SDS-PAGE and immunoblotted using anti-MUSK antibody.

[3] = Stability of difluoroborate compounds using 19F and 11B NMR; conditions: acetonitrile-d3 alone and 80% acetonitrile-d3/20% D2O; up to seven days; room temperature
C2C12 cells = assay: Cell vitality under the MuSK phosphorylation experimental condition; type: cell-based, mouse; conditions: C2C12, experimental condition of FIG. 3
[4] = Table 3, Formula IV, read-out: LAR-ox Ki
[5] = Table 1, Formula II, potassium salt, R1 and R2 para to boron, read-out: LAR-ox Ki
[6] = Table 2, Formula III, R1 and R2 para to boron, read-out: LAR-ox Ki
[7] = FIG. 4, assay similar to FIG. 3, agrin stimulation
[8] = FIG. 1, oxidized form, 0.1 to 100 μM compound

Chain of PTPσ-oxidized (Q13332 30-1948): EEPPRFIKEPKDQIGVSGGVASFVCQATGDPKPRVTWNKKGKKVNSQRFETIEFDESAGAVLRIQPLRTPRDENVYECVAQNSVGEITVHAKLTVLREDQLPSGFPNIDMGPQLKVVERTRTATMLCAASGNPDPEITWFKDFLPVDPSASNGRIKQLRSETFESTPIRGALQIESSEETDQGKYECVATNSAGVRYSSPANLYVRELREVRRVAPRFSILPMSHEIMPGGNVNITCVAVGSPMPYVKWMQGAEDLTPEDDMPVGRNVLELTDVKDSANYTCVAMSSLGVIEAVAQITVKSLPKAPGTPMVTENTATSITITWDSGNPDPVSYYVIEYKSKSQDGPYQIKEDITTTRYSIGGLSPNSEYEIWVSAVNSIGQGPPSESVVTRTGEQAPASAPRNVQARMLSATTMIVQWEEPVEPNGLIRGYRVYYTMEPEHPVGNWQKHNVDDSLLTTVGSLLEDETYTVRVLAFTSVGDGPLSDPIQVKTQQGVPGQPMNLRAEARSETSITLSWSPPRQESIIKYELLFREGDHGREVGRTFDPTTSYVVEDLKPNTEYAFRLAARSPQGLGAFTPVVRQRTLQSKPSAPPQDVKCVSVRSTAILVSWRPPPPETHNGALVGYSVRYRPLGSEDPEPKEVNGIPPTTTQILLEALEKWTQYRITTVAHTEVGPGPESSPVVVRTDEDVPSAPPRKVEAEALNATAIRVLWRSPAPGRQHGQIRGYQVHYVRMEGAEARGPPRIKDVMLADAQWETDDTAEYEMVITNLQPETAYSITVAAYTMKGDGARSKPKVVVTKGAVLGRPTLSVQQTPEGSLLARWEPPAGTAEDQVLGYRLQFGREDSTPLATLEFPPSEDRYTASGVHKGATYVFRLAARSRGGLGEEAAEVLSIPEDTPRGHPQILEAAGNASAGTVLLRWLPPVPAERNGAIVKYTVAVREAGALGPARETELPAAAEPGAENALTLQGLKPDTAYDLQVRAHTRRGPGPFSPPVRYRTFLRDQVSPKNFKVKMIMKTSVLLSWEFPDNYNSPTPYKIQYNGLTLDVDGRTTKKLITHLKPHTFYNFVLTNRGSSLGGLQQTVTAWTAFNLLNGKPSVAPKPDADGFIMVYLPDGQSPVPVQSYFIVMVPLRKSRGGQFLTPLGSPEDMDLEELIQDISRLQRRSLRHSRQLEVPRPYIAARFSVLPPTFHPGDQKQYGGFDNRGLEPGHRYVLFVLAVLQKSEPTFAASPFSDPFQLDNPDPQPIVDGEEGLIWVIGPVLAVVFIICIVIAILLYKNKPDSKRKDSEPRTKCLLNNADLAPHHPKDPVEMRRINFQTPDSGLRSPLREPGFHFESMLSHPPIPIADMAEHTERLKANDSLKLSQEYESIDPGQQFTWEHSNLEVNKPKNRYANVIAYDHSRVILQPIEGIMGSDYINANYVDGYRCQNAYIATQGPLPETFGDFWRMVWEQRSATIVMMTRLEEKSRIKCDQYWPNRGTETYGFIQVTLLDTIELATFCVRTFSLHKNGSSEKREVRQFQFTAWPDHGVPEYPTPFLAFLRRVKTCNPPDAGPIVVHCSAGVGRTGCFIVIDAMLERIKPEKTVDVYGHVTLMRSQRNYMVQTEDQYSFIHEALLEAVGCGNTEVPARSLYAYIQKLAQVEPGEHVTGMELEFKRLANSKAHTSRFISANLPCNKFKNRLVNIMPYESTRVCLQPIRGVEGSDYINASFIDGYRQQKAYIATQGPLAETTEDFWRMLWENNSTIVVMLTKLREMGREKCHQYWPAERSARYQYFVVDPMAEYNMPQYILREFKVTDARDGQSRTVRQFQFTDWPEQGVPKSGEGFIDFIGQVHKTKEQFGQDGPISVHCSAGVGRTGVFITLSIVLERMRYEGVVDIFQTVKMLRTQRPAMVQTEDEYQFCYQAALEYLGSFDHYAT
Chain of LAR-oxidized (Leukocyte common antigen-related, LAR) (P10586 30-1907): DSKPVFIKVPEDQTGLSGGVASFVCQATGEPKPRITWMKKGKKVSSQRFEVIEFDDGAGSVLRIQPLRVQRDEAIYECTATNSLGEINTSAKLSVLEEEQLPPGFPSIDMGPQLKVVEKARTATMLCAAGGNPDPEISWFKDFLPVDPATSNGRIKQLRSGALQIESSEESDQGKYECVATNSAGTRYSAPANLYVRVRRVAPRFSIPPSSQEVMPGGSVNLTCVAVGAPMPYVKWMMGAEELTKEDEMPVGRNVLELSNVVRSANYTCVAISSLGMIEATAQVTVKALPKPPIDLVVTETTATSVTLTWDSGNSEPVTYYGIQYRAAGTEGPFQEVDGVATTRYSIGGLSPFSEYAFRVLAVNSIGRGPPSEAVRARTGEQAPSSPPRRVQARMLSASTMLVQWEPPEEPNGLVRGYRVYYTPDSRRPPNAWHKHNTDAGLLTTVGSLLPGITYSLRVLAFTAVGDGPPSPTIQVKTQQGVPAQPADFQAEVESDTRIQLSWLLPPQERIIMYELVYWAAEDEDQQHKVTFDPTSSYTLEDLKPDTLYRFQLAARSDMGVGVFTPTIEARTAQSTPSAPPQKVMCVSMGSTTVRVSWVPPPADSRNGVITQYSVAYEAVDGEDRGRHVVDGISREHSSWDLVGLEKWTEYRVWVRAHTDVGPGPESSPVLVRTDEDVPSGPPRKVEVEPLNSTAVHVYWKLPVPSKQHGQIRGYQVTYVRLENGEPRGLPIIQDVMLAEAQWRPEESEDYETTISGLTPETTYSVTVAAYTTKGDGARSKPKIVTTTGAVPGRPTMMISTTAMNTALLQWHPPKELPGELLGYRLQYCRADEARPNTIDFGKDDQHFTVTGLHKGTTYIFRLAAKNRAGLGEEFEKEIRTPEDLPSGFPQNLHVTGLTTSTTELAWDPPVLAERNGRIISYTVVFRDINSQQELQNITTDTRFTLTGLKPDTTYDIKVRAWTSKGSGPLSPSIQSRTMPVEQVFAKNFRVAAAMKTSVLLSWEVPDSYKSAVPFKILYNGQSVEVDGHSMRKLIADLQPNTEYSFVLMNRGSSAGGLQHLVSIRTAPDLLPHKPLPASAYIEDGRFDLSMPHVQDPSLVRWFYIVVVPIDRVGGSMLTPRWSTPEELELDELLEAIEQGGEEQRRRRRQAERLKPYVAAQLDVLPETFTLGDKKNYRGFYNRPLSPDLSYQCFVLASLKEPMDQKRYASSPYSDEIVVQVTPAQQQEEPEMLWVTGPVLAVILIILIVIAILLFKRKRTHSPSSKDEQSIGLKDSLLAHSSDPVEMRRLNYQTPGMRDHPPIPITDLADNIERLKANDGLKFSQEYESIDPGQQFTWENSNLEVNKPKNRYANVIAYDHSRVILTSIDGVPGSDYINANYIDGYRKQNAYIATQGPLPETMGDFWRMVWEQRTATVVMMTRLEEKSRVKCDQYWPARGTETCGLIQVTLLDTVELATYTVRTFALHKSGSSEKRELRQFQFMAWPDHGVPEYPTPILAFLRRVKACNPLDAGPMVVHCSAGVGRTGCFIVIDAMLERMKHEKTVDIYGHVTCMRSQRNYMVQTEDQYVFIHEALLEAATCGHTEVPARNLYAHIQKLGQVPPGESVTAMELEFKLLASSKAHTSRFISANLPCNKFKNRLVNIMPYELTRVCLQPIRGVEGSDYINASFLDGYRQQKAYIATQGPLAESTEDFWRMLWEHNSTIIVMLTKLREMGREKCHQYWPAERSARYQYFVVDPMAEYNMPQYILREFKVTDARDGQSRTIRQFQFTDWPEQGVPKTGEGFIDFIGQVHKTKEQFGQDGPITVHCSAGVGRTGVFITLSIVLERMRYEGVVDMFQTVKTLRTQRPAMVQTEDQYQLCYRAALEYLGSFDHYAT

Ki [1, 4]: > 1000 µM
Ki ([1]; read-out: LAR-oxidized Ki): > 1000 µM
SMILES: O=C(Nc1ccc2c(c1)B(O)OCC2)c1ccc(F)cc1 [Compound S-6]

Ki [1, 4]: 500 µM
SMILES: OB1OCCc2ccccc21 [Compound S-4]

Ki [1, 5]: 4 µM
SMILES: Fc1ccc([B-](F)(F)c2ccc(F)cc2)cc1 [CL-65]

Ki [1, 6]: 20 µM
SMILES: OB(c1ccccc1)c1ccccc1 [CL-30]

Ki ([1]; read-out: LAR-oxidized Ki): > 1000 µM
SMILES: F[B-](F)(F)c1ccc(-c2ccccc2)cc1 [CL-70]

Ki ([1]; read-out: LAR-oxidized Ki): > 1000 µM
SMILES: C=CB(O)c1ccccc1 [CL-49]

Ki [1, 5]: > 1000 µM
Ki ([1]; read-out: LAR-oxidized Ki): > 1000 µM
SMILES: COc1ccc([B-](F)(F)c2ccc(OC)cc2)cc1 [CL-60]

hydrolysis or degradation by 19F and 11B NMR [3]: no hydrolysis or degradation
SMILES: F[B-](F)(c1ccc(Cl)cc1)c1ccc(-c2ccccc2)cc1 [CL-83]

Ki [1, 5]: 4 µM
SMILES: F[B-](F)(c1ccc(Cl)cc1)c1ccc(Cl)cc1 [CL-61]

The remaining lines, values behind:

SMILES: OB1OCc2ccccc21 [Compound B-1]
Ki (PTPσ-oxidized): > 1000 µM
Ki ([1]; read-out: LAR-oxidized Ki): > 1000 µM

SMILES: OB1OCCc2cc(F)ccc21 [Compound B-5]
Ki (PTPσ-oxidized; read-out: PTPσ-oxidized Ki): > 1000 µM
Ki [1, 4]: > 1000 µM
Ki ([1]; read-out: LAR-oxidized Ki): > 1000 µM

SMILES: Nc1ccc2c(c1)COB2O [Compound B-2]
Ki (PTPσ-oxidized; read-out: PTPσ-oxidized Ki): > 1000 µM
Ki ([1]; read-out: LAR-oxidized Ki): > 1000 µM

SMILES: Fc1ccc([B-](F)(F)c2ccc(-c3ccccc3)cc2)cc1 [CL-76]
phosphorylation level of MuSK versus control [2, 7]: higher phosphorylation; also recorded: enhance the phosphorylation level of MUSK
Ki [1, 5]: 1 µM
Ki ([1]; read-out: LAR-oxidized Ki): 1 µM

SMILES: OB(c1ccc(F)cc1)c1ccc(-c2ccccc2)cc1 [CL-73-2]
phosphorylation level of MuSK versus control [2, 7]: higher phosphorylation; also recorded: enhance the phosphorylation level of MUSK
Ki [1, 6]: 1 µM

SMILES: F[B-](F)(c1ccccc1)c1ccccc1 [CL-37]
phosphatase activity of PTP-sigma (inhibition) (PTPσ-oxidized; [8]): most actively inhibited
Ki (PTPσ-oxidized; read-out: PTPσ-oxidized Ki): 4 µM
phosphorylation level of MuSK versus control ([2]; FIG. 3, CL-37 5 μM, 1 hour pretreatment, agrin 10 nM, 0-60 minutes): significantly higher than the control; also recorded: inhibits LAR from dephosphorylating MuSK
phosphorylation level of MuSK versus control [2, 7]: higher phosphorylation; also recorded: enhance the phosphorylation level of MUSK
effect on cell vitality (C2C12 cells): did not exhibit an adverse effect on cell vitality
phosphatase activity of LAR (inhibition) [1, 8]: most actively inhibited
Ki [1, 5]: 5 µM

SMILES: Nc1ccc2c(c1)B(O)OCC2 [Compound B-14]
Ki (PTPσ-oxidized; read-out: PTPσ-oxidized Ki): 100 µM
Ki [1, 4]: 57 µM

SMILES: OB1OCc2cc(F)ccc21 [Compound B-7]
Ki (PTPσ-oxidized; read-out: PTPσ-oxidized Ki): > 1000 µM
Ki ([1]; read-out: LAR-oxidized Ki): > 1000 µM
